Assays:
[1] = biological target: GST-tagged KRAS-G12D (2-169) (Homo sapiens, UniProt P01116, G12D); assay: Nucleotide exchange assay (NEA), SOS-mediated, HTRF, KRAS G12D; type: biochemical; conditions: Table 4; IC50 extracted at 30 min; 20 nM SOScat; read-out: NEA G12D IC50
How it was run: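 SOS1cat-driven loading of fluorescent GTP-DY-647P1 (150 nM) onto GST-KRAS-G12D (2-169, 0.25 nM) read by time-resolved FRET; SOScat 20 nM, compound preincubated with KRAS 1 h at RT. Signal blanked to no-SOS reactions, normalized to DMSO; IC50 fitted from the 30-min read.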

[2] = biological target: GST-tagged KRAS-G12V (2-169) (Homo sapiens, UniProt P01116, G12V); assay: Nucleotide exchange assay (NEA), SOS-mediated, HTRF, KRAS G12V; type: biochemical; conditions: Table 4; IC50 extracted at 90 min; 80 nM SOS
Sequence of GST-tagged KRAS-G12V (2-169) (P01116 2-169 isoform P01116-2 G12V): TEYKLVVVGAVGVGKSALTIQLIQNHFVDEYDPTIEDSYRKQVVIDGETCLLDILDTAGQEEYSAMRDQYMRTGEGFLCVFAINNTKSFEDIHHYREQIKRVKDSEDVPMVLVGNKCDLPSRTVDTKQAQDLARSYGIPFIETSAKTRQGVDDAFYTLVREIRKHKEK
How it was run: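 Exchange onto fluorescent GTP-DY-647P1 (150 nM final) catalysed by 80 nM SOS1cat was followed by Tb-anti-GST HTRF at RT for up to 90 min, after 1 h compound pre-incubation with 0.25 nM GST-tagged KRAS-G12V (2-169), pH 7.3. DMSO = 0%, no-SOS blank = 100%; 4-parameter IC50 taken at 90 min.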

[3] = system: phospho-ERK in GP2D (KRAS-G12D) cells; assay: pERK In Cell Western (ICW) assay (Method B), GP2D; type: cell-based; conditions: GP2d, 3 h, Table 4
How it was run: (§1)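 After overnight attachment, cells received nine half-log compound concentrations for 3 hours, were fixed, permeabilized and probed with phospho-ERK antibody plus DRAQ5. Normalized pERK signal versus blank control yields IC50 via variable-slope four-parameter fit.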

[4] = system: phospho-ERK in SW620 (KRAS-G12V) cells; assay: pERK In Cell Western (ICW) assay (Method B), SW620; type: cell-based; conditions: Homo sapiens, SW-620, 3 h, Table 4
How it was run: as §1

Sequence of GST-tagged KRAS-G12D (2-169) (P01116 2-169 isoform P01116-2 G12D): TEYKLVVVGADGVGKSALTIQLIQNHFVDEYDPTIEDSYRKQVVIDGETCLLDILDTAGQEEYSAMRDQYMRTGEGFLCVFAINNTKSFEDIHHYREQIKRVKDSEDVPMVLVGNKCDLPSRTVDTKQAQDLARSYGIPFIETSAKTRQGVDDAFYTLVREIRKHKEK

Compound	IC50 [1] [nM]	IC50 [2] [nM]	IC50 [3] [nM]	IC50 [4] [nM]
N#Cc1c(N)sc2c1C1(CC2)CN(c2nc(OC[C@@]34CCCN3C[C@H](F)C4)nc(N3CCCCC3C#N)n2)C1 (stereo partly drawn) [Compound 44, 2-amino-1′-[4-(2-cyano-1-piperidyl)-6-[[(2R,8S)-2-fluoro-1,2,3,5,6,7-hexahydropyrrolizin-8-yl]methoxy]-1,3,5-triazin-2-yl]spiro[5,6-dihydrocyclopenta[b]thiophene-4,3′-azetidine]-3-carbonitrile]	10 to 100	10 to 100	100 to 1000	1000 to 20000
N#Cc1c(N)sc2c1C1(CC2)CN(c2nc(OC[C@@]34CCCN3C[C@H](F)C4)nc(N3CCCC4(C3)NC(=O)NC4=O)n2)C1 (stereo partly drawn) [Compound 45, 2-amino-1′-[4-(2,4-dioxo-1,3,9-triazaspiro[4.5]decan-9-yl)-6-[[(2R,8S)-2-fluoro-1,2,3,5,6,7-hexahydropyrrolizin-8-yl]methoxy]-1,3,5-triazin-2-yl]spiro[5,6-dihydrocyclopenta[b]thiophene-4,3′-azetidine]-3-carbonitrile]	< 10	< 10	100 to 1000	1000 to 20000
C[C@@]1(O)C[C@@H](O)CN(c2nc(OC[C@@]34CCCN3C[C@H](F)C4)nc(N3CC4(CCc5sc(N)c(C#N)c54)C3)n2)C1 [Compound 47, 2-amino-1′-[4-[(3R,5R)-3,5-dihydroxy-3-methyl-1-piperidyl]-6-[[(2R,8S)-2-fluoro-1,2,3,5,6,7-hexahydropyrrolizin-8-yl]methoxy]-1,3,5-triazin-2-yl]spiro[5,6-dihydrocyclopenta[b]thiophene-4,3′-azetidine]-3-carbonitrile]	< 10	< 10	100 to 1000	≥ 20000
CC1(O)CCCCN(c2nc(OC[C@@]34CCCN3C[C@H](F)C4)nc(N3CC4(CCc5sc(N)c(C#N)c54)C3)n2)C1 (stereo partly drawn) [Compound 48, 2-amino-1′-[4-(3-hydroxy-3-methyl-azepan-1-yl)-6-[[(2R,8S)-2-fluoro-1,2,3,5,6,7-hexahydropyrrolizin-8-yl]methoxy]-1,3,5-triazin-2-yl]spiro[5,6-dihydrocyclopenta[b]thiophene-4,3′-azetidine]-3-carbonitrile]	10 to 100	< 10	100 to 1000	100 to 1000
C[C@@]1(O)CCCN(c2nc(OC[C@@]34CCCN3C[C@H](F)C4)nc(N3CC4(C3)SCc3sc(N)c(C#N)c34)n2)C1 [Compound 49, 2-amino-1′-[4-[[(2R,8S)-2-fluoro-1,2,3,5,6,7-hexahydropyrrolizin-8-yl]methoxy]-6-[(3R)-3-hydroxy-3-methyl-1-piperidyl]-1,3,5-triazin-2-yl]spiro[6H-thieno[2,3-c]thiophene-4,3′-azetidine]-3-carbonitrile]	< 10	< 10	< 10	100 to 1000
N#Cc1c(N)sc2c1C1(CC2)CN(c2nc(OC[C@@]34CCCN3C[C@H](F)C4)nc(N3CCCCC(O)C3)n2)C1 (stereo partly drawn) [Compound 50, 2-amino-1′-[4-(3-hydroxyazepan-1-yl)-6-[[(2R,8S)-2-fluoro-1,2,3,5,6,7-hexahydropyrrolizin-8-yl]methoxy]-1,3,5-triazin-2-yl]spiro[5,6-dihydrocyclopenta[b]thiophene-4,3′-azetidine]-3-carbonitrile]	10 to 100	10 to 100	100 to 1000	100 to 1000
C[C@@]1(O)CCCN(c2nc(OC[C@@]34CCCN3C[C@H](F)C4)nc(N3CC4(C3)c3c(sc(N)c3C#N)CC3CC34)n2)C1 (stereo partly drawn) [Compound 51, 2-amino-1′-[4-[[(2R,8S)-2-fluoro-1,2,3,5,6,7-hexahydropyrrolizin-8-yl]methoxy]-6-[(3R)-3-hydroxy-3-methyl-1-piperidyl]-1,3,5-triazin-2-yl]spiro[4a,5,5a,6-tetrahydrocyclopropa[f]benzothiophene-4,3′-azetidine]-3-carbonitrile]	10 to 100	10 to 100	100 to 1000	1000 to 20000
CC1(NC#N)CCCN(c2nc(OC[C@@]34CCCN3C[C@H](F)C4)nc(N3CC4(CCc5sc(N)c(C#N)c54)C3)n2)C1 (stereo partly drawn) [Compound 52, [1-[4-(2-amino-3-cyano-spiro[5,6-dihydrocyclopenta[b]thiophene-4,3′-azetidine]-1′-yl)-6-[[(2R,8S)-2-fluoro-1,2,3,5,6,7-hexahydropyrrolizin-8-yl]methoxy]-1,3,5-triazin-2-yl]-3-methyl-3-piperidyl]cyanamide]	10 to 100	10 to 100	100 to 1000	1000 to 20000
C=C1CN2CCCC2(COc2nc(N3CC4(CCc5sc(N)c(C#N)c54)C3)nc(N3CCC[C@@](C)(O)C3)n2)C1 (stereo partly drawn) [Compound 55, 2-amino-1′-[4-[(3R)-3-hydroxy-3-methyl-1-piperidyl]-6-[(6-methylene-2,3,5,7-tetrahydro-1H-pyrrolizin-8-yl)methoxy]-1,3,5-triazin-2-yl]spiro[5,6-dihydrocyclopenta[b]thiophene-4,3′-azetidine]-3-carbonitrile]	< 10	< 10	10 to 100	100 to 1000
N#Cc1c(N)sc2c1C1(CC2)CN(c2nc(OCC3(CN4CCOCC4)CC3)nc(N3CCCC(C#N)C3)n2)C1 (stereo not shown) [Compound 56, 2-amino-1′-[4-(3-cyano-1-piperidyl)-6-[[1-(morpholinomethyl)cyclopropyl]methoxy]-1,3,5-triazin-2-yl]spiro[5,6-dihydrocyclopenta[b]thiophene-4,3′-azetidine]-3-carbonitrile]	100 to 1000	10 to 100	100 to 1000	1000 to 20000
CC1(C#N)CCCN(c2nc(OCC3(CN4CCOCC4)CC3)nc(N3CC4(CCc5sc(N)c(C#N)c54)C3)n2)C1 (stereo not shown) [Compound 57, 2-amino-1′-[4-(3-cyano-3-methyl-1-piperidyl)-6-[[1-(morpholinomethyl)cyclopropyl]methoxy]-1,3,5-triazin-2-yl]spiro[5,6-dihydrocyclopenta[b]thiophene-4,3′-azetidine]-3-carbonitrile]	100 to 1000	10 to 100	1000 to 20000	1000 to 20000
C[C@]1(CO)C[C@@H](O)CN1c1nc(OC[C@@]23CCCN2C[C@H](F)C3)nc(N2CC3(CCc4sc(N)c(C#N)c43)C2)n1 [Compound 58, 2-amino-1′-[4-[[(2R,8S)-2-fluoro-1,2,3,5,6,7-hexahydropyrrolizin-8-yl]methoxy]-6-[(2R,4R)-4-hydroxy-2-(hydroxymethyl)-2-methyl-pyrrolidin-1-yl]-1,3,5-triazin-2-yl]spiro[5,6-dihydrocyclopenta[b]thiophene-4,3′-azetidine]-3-carbonitrile]	10 to 100	10 to 100	1000 to 20000	1000 to 20000
C[C@@]1(CO)C[C@@H](O)CN1c1nc(OC[C@@]23CCCN2C[C@H](F)C3)nc(N2CC3(CCc4sc(N)c(C#N)c43)C2)n1 [Compound 59, 2-amino-1′-[4-[[(2R,8S)-2-fluoro-1,2,3,5,6,7-hexahydropyrrolizin-8-yl]methoxy]-6-[(2S,4R)-4-hydroxy-2-(hydroxymethyl)-2-methyl-pyrrolidin-1-yl]-1,3,5-triazin-2-yl]spiro[5,6-dihydrocyclopenta[b]thiophene-4,3′-azetidine]-3-carbonitrile]	100 to 1000	10 to 100	≥ 20000	≥ 20000
C[C@@]1(O)CCCN(c2nc(OCC3(CN4CCOCC4)CC3)nc(N3CC4(C3)c3c(sc(N)c3C#N)CC4F)n2)C1 (stereo partly drawn) [Compound 61, 2-amino-5-fluoro-1′-[4-[(3R)-3-hydroxy-3-methyl-1-piperidyl]-6-[[1-(morpholinomethyl)cyclopropyl]methoxy]-1,3,5-triazin-2-yl]spiro[5,6-dihydrocyclopenta[b]thiophene-4,3′-azetidine]-3-carbonitrile]	< 10	10 to 100	10 to 100	100 to 1000
N#CCC1C=C(F)CN(c2nc(OCC3(CN4CCOCC4)CC3)nc(N3CC4(CCc5sc(N)c(C#N)c54)C3)n2)C1 (stereo not shown) [Compound 65, 2-amino-1′-[4-[3-(cyanomethyl)-5-fluoro-3,6-dihydro-2H-pyridin-1-yl]-6-[[1-(morpholinomethyl)cyclopropyl]methoxy]-1,3,5-triazin-2-yl]spiro[5,6-dihydrocyclopenta[b]thiophene-4,3′-azetidine]-3-carbonitrile]	100 to 1000	10 to 100	1000 to 20000	1000 to 20000
C[C@@]1(O)C[C@H](O)CN(c2nc(OC[C@@]34CCCN3C[C@H](F)C4)nc(N3CC4(CCc5sc(N)c(C#N)c54)C3)n2)C1 [Compound 67, 2-amino-1′-[4-[(3R,5S)-3,5-dihydroxy-3-methyl-1-piperidyl]-6-[[(2R,8S)-2-fluoro-1,2,3,5,6,7-hexahydropyrrolizin-8-yl]methoxy]-1,3,5-triazin-2-yl]spiro[5,6-dihydrocyclopenta[b]thiophene-4,3′-azetidine]-3-carbonitrile]	10 to 100	10 to 100	100 to 1000	≥ 20000

From patent US12421254B2, “KRAS modulators and uses thereof” (Quanta Therapeutics, Inc., priority 2023, dated 2025)
